Measurements taken from US20230250106A1, “COMPOUNDS AND COMPOSITIONS FOR TREATING CONDITIONS ASSOCIATED WITH STING ACTIVITY” (IFM Due, Inc., priority 2020, published 2023).

Tested on: STING pathway
Experiment: STING reporter assay: luciferase reporter activity in THP1-Dual KO-IFNAR2 cells activated with 2'3'cGAMP
Format: cell-based
Conditions: Homo sapiens, 2'3'cGAMP 15 μM, 24 h, read-out: hSTING EC50
Experimental: STING pathway activation by the compounds described herein was measured using THP1-Dual™ cells (KO-IFNAR2).
THP1-Dual™ KO-IFNAR2 Cells (obtained from invivogen) were maintained in RPMI, 10% FCS, 5 ml P/S, 2 mM L-glut, 10 mM Hepes, and 1 mM sodium pyruvate. Compounds were spotted in empty 384 well tissue culture plates (Greiner 781182) by Echo for a final concentration of 0.0017-100 μM. Cells were plated into the TC plates at 40 μL per well, 2×10E6 cells/mL. For activation with STING ligand, 2′3′cGAMP (MW 718.38, obtained from Invivogen), was prepared in Optimem media.
The following solutions were prepared for each 1×384 plate: • Solution A: 2 mL Optimem with one of the following stimuli: • 60 μL of 10 mM 2′3′cGAMP→150 μM stock • Solution B: 2 mL Optimem with 60 μL Lipofectamine 2000→Incubate 5 min at RT
2 mL of solution A and 2 ml Solution B was mixed and incubated for 20 min at room temperature (RT). 20 μL of transfection solution (A+B) was added on top of the plated cells, with a final 2′3′cGAMP concentration of 15 μM. The plates were then centrifuged immediately at 340 g for 1 minute, after which they were incubated at 37° C., 5% CO2,>98% humidity for 24 h. Luciferase reporter activity was then measured. EC50 values were calculated by using standard methods known in the art.
Luciferase reporter assay: 10 μL of supernatant from the assay was transferred to white 384-plate with flat bottom and squared wells. One pouch of QUANTI-Luc™ Plus was dissolved in 25 mL of water. 100 μL of QLC Stabilizer per 25 mL of QUANTI-Luc™ Plus solution was added. 50 μL of QUANTI-Luc™ Plus/QLC solution per well was then added. Luminescence was measured on a Platereader (e.g., Spectramax I3X (Molecular Devices GF3637001)).
Luciferase reporter activity was then measured. EC50 values were calculated by using standard methods known in the art.

SMILES	EC50 [nM]
O=C(Nc1c[nH]c2cc(F)ccc12)c1ccc(OCCCC(F)(F)F)c(F)c1 [Compound 192, 3-fluoro-N-(6-fluoro-1H-indol-3-yl)-4-(4,4,4-trifluorobutoxy)benzamide]	200 to 1000
O=C(Nc1c[nH]c2ccc(F)cc12)c1ccc(OCCCC(F)(F)F)c(F)c1 [Compound 146, 3-fluoro-N-(5-fluoro-1H-indol-3-yl)-4-(4,4,4-trifluorobutoxy)benzamide]	40 to 200
O=C(Nc1c[nH]c2cc(F)c(F)cc12)c1cnc(N2CCC3(CC2)CC3(F)F)c(F)c1 [Compound 219, N-(5,6-difluoro-1H-indol-3-yl)-6-(1,1-difluoro-6-azaspiro[2.5]octan-6-yl)-5-fluoronicotinamide]	40 to 200
O=C(Nc1c[nH]c2cc(F)c(F)cc12)c1ccc(OC2CC(F)(F)C2)c(F)c1 [Compound 149, N-(5,6-difluoro-1H-indol-3-yl)-4-(3,3-difluorocyclobutoxy)-3-fluorobenzamide]	200 to 1000
N#Cc1ccc2c(NC(=O)c3ccc(OCCCC(F)(F)F)c(F)c3)c[nH]c2c1 [Compound 104, N-(6-cyano-1H-indol-3-yl)-3-fluoro-4-(4,4,4-trifluorobutoxy)benzamide]	1000 to 5000
CC1(c2ccc(C(=O)Nc3c[nH]c4cc(F)c(F)cc34)cn2)CCN(CC(F)(F)F)CC1 [Compound 218, N-(5,6-difluoro-1H-indol-3-yl)-6-(4-methyl-1-(2,2,2-trifluoroethyl)piperidin-4-yl)nicotinamide]	200 to 1000
N#CC1(c2ccc(C(=O)Nc3c[nH]c4cc(F)c(F)cc34)cc2)CCC(F)(F)CC1 [Compound 213, 4-(1-cyano-4,4-difluorocyclohexyl)-N-(5,6-difluoro-1H-indol-3-yl)benzamide]	200 to 1000
COCCO[C@@H]1CCN(c2ncc(C(=O)Nc3c[nH]c4cc(F)c(F)cc34)cc2C)C1 [Compound 184, (R)-N-(5,6-difluoro-1H-indol-3-yl)-6-(3-(2-methoxyethoxy)pyrrolidin-1-yl)-5-methylnicotinamide]	1000 to 5000
Cc1nc(C(=O)Nc2c[nH]c3cc(F)c(F)cc23)cnc1OCC(F)(F)F [Compound 173, N-(5,6-difluoro-1H-indol-3-yl)-6-methyl-5-(2,2,2-trifluoroethoxy)pyrazine-2-carboxamide]	1000 to 5000
O=C(Nc1c[nH]c2cc(F)c(F)cc12)c1ccc(Oc2ccc(C(F)(F)F)cn2)cc1 [Compound 133, N-(5,6-difluoro-1H-indol-3-yl)-4-{[5-(trifluoromethyl)pyridin-2-yl]oxy}benzamide]	200 to 1000

Results, then the molecule that gave them:

EC50 [nM]	SMILES
200 to 1000	O=C(Nc1c[nH]c2cc(F)c(F)cc12)c1cccc(OC(F)(F)F)c1 [Compound 125, N-(5,6-difluoro-1H-indol-3-yl)-3-(trifluoromethoxy)benzamide]
200 to 1000	Cc1ncc(C(=O)Nc2c[nH]c3cc(F)c(F)cc23)cc1NCCCC(F)(F)F [Compound 243, N-(5,6-difluoro-1H-indol-3-yl)-6-methyl-5-((4,4,4-trifluorobutyl)amino)nicotinamide]
5000 to 100000	CCC(O)c1cc(C(=O)Nc2c[nH]c3cc(F)c(F)cc23)ccn1 (centres unmarked) [Compound 241, N-(5,6-difluoro-1H-indol-3-yl)-2-(1-hydroxypropyl)isonicotinamide]
1000 to 5000	O=C(Nc1c[nH]c2cc(F)c(F)cc12)c1cc(CCO)cc(C(F)(F)F)c1 [Compound 279, N-(5,6-difluoro-1H-indol-3-yl)-3-(2-hydroxyethyl)-5-(trifluoromethyl)benzamide]
200 to 1000	Cc1nc(-c2cccc(C(=O)Nc3c[nH]c4cc(F)c(F)cc34)c2)no1 [Compound 274, N-(5,6-difluoro-1H-indol-3-yl)-3-(5-methyl-1,2,4-oxadiazol-3-yl)benzamide]
1000 to 5000	Cc1cc(C(=O)Nc2c[nH]c3cc(F)c(F)cc23)cc(C2CCCCC2)n1 [Compound 186, 2-cyclohexyl-N-(5,6-difluoro-1H-indol-3-yl)-6-methylisonicotinamide]
200 to 1000	CCOc1ccc(C(=O)Nc2c[nH]c3cc(F)c(F)cc23)cc1 [Compound 147, N-(5,6-difluoro-1H-indol-3-yl)-4-ethoxybenzamide]
